Among the test systems are HOP-62 NSCLC; UO-31 renal; HT29 colon; COLO 205 colon; HCT-15 colon; SK-MEL-2 melanoma; OVCAR-8 ovarian; OVCAR-4 ovarian; DU-145 prostate.
Common to all, as to experiment: NCI-60 cell line screen, 48 h

We go through 17 compounds from PubChem BioAssay (NCI).

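1) Cells in 96-well plates. 2) Compound, 48 h, 5 concentrations. 3) Linear interpolation between surrounding doses. 4) Unreached endpoint = highest concentration. GI50 = concentration required for 50% inhibition of growth. TGI: concentration producing complete growth inhibition.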 Where only a bound is given, the exact number is not on record here.

Turning to `COc1cc2c(Cc3cc(OCc4ccccc4)ccc3N)nccc2c(OC)c1OC`, the TGI in the experiment on HOP-62 NSCLC, in the experiment on UO-31 renal, in the experiment with HT29 colon, in the experiment with COLO 205 colon, in the experiment on HCT-15 colon and in the experiment with SK-MEL-2 melanoma was more than 10 µM in each case. This compound also came in with a TGI in the experiment on OVCAR-8 ovarian of more than 10 µM.

`CC1=C(C(=O)Nc2ccccc2C)C(c2ccccc2C)C(C(=O)Nc2ccccc2C)=C(C)N1`: the TGI in the experiment on HOP-62 NSCLC was found to be 62.8 µM; in the experiment with UO-31 renal, 30.2 µM; in the experiment with OVCAR-4 ovarian it was 53.9 µM; in the experiment on HT29 colon, 43 µM; in the experiment on COLO 205 colon it was 62.5 µM; in the experiment on HCT-15 colon, 40.3 µM. For the same compound, the TGI with SK-MEL-2 melanoma is 38.8 µM; with OVCAR-8 ovarian it was 36.8 µM.

Consider `COC(=O)C1C(/C=C/c2ccoc2)ON2CCC[C@@H]12` (stereo partly drawn), for which the TGI in the experiment on HOP-62 NSCLC, in the experiment with UO-31 renal, in the experiment with OVCAR-4 ovarian, in the experiment with HT29 colon, with COLO 205 colon and in the experiment with SK-MEL-2 melanoma was more than 100 µM throughout. The same compound registered a TGI with OVCAR-8 ovarian of more than 100 µM.

Consider `O=c1[nH]cnc2c1ncn2CCCCO`, for which the TGI in the experiment with HOP-62 NSCLC, in the experiment on UO-31 renal, in the experiment with OVCAR-4 ovarian, in the experiment on HT29 colon, in the experiment on COLO 205 colon and in the experiment on HCT-15 colon was more than 100 µM throughout. The TGI in the experiment with OVCAR-8 ovarian was more than 100 µM.

Turning to `NS(=O)(=O)c1ccc(NC(=O)c2cccc3c(Nc4ccc(S(N)(=O)=O)cc4)c4ccccc4nc23)cc1`, the TGI is more than 100 µM with HOP-62 NSCLC; more than 100 µM with UO-31 renal; 55.6 µM in the experiment with OVCAR-4 ovarian; 68.4 µM in the experiment on HT29 colon; more than 100 µM in the experiment on COLO 205 colon; more than 100 µM in the experiment on HCT-15 colon. Besides, the TGI was 82.3 µM in the experiment with SK-MEL-2 melanoma and more than 100 µM in the experiment with OVCAR-8 ovarian.

For the compound `O=S(=O)(N/N=C/c1ccc(Cl)cc1Cl)c1ccccc1`, the TGI in the experiment with HOP-62 NSCLC, in the experiment with UO-31 renal, in the experiment with OVCAR-4 ovarian, in the experiment on HT29 colon, in the experiment on COLO 205 colon and in the experiment on HCT-15 colon was more than 100 µM each time. Further, the TGI in the experiment on SK-MEL-2 melanoma and in the experiment with OVCAR-8 ovarian was more than 100 µM throughout.

As for `COc1ccc(/C=N\O[Si](C)(C)C(C)(C)C)cc1O[Si](C)(C)C(C)(C)C`, the TGI in the experiment on HOP-62 NSCLC worked out at 36 µM; in the experiment on UO-31 renal it was 27.9 µM; in the experiment on OVCAR-4 ovarian, 46.3 µM; in the experiment with HT29 colon, 36.2 µM; in the experiment on COLO 205 colon, 52.2 µM; in the experiment on HCT-15 colon it was 34 µM. Further, the TGI in the experiment on SK-MEL-2 melanoma came to 31.5 µM; in the experiment with OVCAR-8 ovarian, 45.2 µM.

As for `O=c1cc(-c2ccc(O)cc2)oc2cc(O)cc(O)c12`, the TGI was more than 100 µM with HOP-62 NSCLC; 56.4 µM in the experiment on UO-31 renal; more than 100 µM with OVCAR-4 ovarian; more than 100 µM with COLO 205 colon; more than 100 µM in the experiment on HCT-15 colon; 80.3 µM in the experiment with SK-MEL-2 melanoma.

As to `CCOC(=O)C1Oc2ccc([N+](=O)[O-])cc2C1(C)O` (stereo not drawn), the TGI with HOP-62 NSCLC, with UO-31 renal, in the experiment with OVCAR-4 ovarian, with HT29 colon, with COLO 205 colon and in the experiment with HCT-15 colon was more than 100 µM each time. The TGI with SK-MEL-2 melanoma and in the experiment with OVCAR-8 ovarian was more than 100 µM in each case.

Consider `O=C(NN1C(=O)CSC12CCC(c1ccccc1)CC2)c1[nH]c2ccc(F)cc2c1-c1ccccc1` (stereo not drawn), for which the GI50 is 18.3 µM in the experiment on HOP-62 NSCLC; 17 µM in the experiment with UO-31 renal; 15.8 µM in the experiment on OVCAR-4 ovarian; 14.8 µM with HT29 colon; 21.2 µM with COLO 205 colon; 16.6 µM with HCT-15 colon. For the same compound, the GI50 is 16.5 µM in the experiment with DU-145 prostate, 17.6 µM with SK-MEL-2 melanoma and 17.8 µM with OVCAR-8 ovarian. Further, the TGI in the experiment on HOP-62 NSCLC stood at 34.7 µM; in the experiment on UO-31 renal it was 31 µM; with OVCAR-4 ovarian it was 32.5 µM; in the experiment with HT29 colon, 30.5 µM; in the experiment with COLO 205 colon it was 68.3 µM; with HCT-15 colon it was 32.7 µM. Moreover, the TGI amounted to 33.6 µM in the experiment on DU-145 prostate, 33.2 µM in the experiment with SK-MEL-2 melanoma and 36.5 µM in the experiment on OVCAR-8 ovarian.

For `CCOC(=O)/C=C1\Oc2ccccc2C1(C)O` (stereo not drawn), the TGI in the experiment with HOP-62 NSCLC, in the experiment with UO-31 renal, in the experiment on OVCAR-4 ovarian, with HT29 colon, in the experiment with COLO 205 colon and in the experiment on HCT-15 colon was more than 100 µM throughout. Also, the TGI with SK-MEL-2 melanoma and with OVCAR-8 ovarian was more than 100 µM throughout.

For the compound `Cc1cccc(N=C2NC(=O)C(CC(=O)Nc3ccccc3Cl)S2)c1` (stereo not drawn), the TGI with UO-31 renal, in the experiment with OVCAR-4 ovarian, in the experiment with HT29 colon, in the experiment with HCT-15 colon, with SK-MEL-2 melanoma and with OVCAR-8 ovarian was more than 100 µM in each case.

In the case of `O=C(CC(=O)c1ccccc1)C(=O)NC12CC3CC(CC(C3)C1)C2`, the TGI in the experiment with HOP-62 NSCLC is more than 100 µM; in the experiment with UO-31 renal, more than 100 µM; in the experiment with OVCAR-4 ovarian, more than 100 µM; with HT29 colon, more than 100 µM; in the experiment with COLO 205 colon it was more than 64.8 µM; with HCT-15 colon, more than 54.3 µM. Moreover, the TGI in the experiment with SK-MEL-2 melanoma and with OVCAR-8 ovarian was more than 100 µM each time.

In the case of `NNC(=S)N/N=C(/C(=O)Nc1ccc([N+](=O)[O-])cc1)c1nc2ccc([N+](=O)[O-])cc2[nH]c1=O`, the TGI in the experiment on UO-31 renal, in the experiment on OVCAR-4 ovarian, with HT29 colon, with COLO 205 colon, in the experiment with HCT-15 colon and in the experiment on SK-MEL-2 melanoma was more than 100 µM throughout. The compound also came in with a TGI in the experiment on OVCAR-8 ovarian of more than 100 µM.

Turning to `COc1ccc(/C(C#N)=C(/N)SCc2ccccc2Cl)cc1`, the TGI in the experiment on HOP-62 NSCLC is 34.1 µM; in the experiment on UO-31 renal it was more than 10 µM; in the experiment with HT29 colon, 33.3 µM; with COLO 205 colon it was 41.6 µM; in the experiment on SK-MEL-2 melanoma, 32.6 µM; with OVCAR-8 ovarian it was more than 10 µM.

As to `O=C(O)c1cc(=O)c2cc(C(=O)c3cccs3)c(Cl)c(Cl)c2o1`, the TGI in the experiment on HOP-62 NSCLC, in the experiment on UO-31 renal, with OVCAR-4 ovarian, in the experiment on HT29 colon, in the experiment with SK-MEL-2 melanoma and with OVCAR-8 ovarian was more than 100 µM throughout.

For the compound `CCSC(=O)C1(C)OC2CCCCC2C1=O` (stereo not drawn), the TGI in the experiment on HOP-62 NSCLC, with UO-31 renal, with OVCAR-4 ovarian, in the experiment on COLO 205 colon, in the experiment on HCT-15 colon and in the experiment with SK-MEL-2 melanoma was more than 100 µM each time. This compound also yielded a TGI with OVCAR-8 ovarian of more than 100 µM.
